# Test: High throughput screening of water-soluble solid excipients for glucagon dissolution
# Assay type: physicochemical
# Conditions: for Fold change vs. PBS Avg.: 30-minute incubation in pH 7.4 PBS containing 1 mg/mL excipient; for Fold change vs. PBS Avg. / Glucagon concentration Avg.: 37° C.; for Glucagon concentration Avg.: solubilized glucagon after 30-minute incubation of lyophilized glucagon in pH 7.4 PBS containing 1 mg/mL excipient; for enhancement of glucagon dissolution (statistical significance compared to no excipient): 30-minute incubation in pH 7.4 PBS at 37° C.
Compound,Fold change vs. PBS Avg.,Glucagon concentration Avg.,Fold change vs. PBS Avg. (listed as L-Histidine),Glucagon concentration Avg. (listed as L-Histidine),enhancement of solution glucagon concentration compared to unformulated glucagon (pH 7.4 PBS),enhancement of glucagon dissolution (statistical significance compared to no excipient)
O=C[C@H](O)[C@@H](O)[C@H](O)[C@H](O)CO [D-glucose],1.08 fold,0.23 mg/mL,,,,
CC(C)[C@H](N)C(=O)O [Valine],1.89 fold,0.41 mg/mL,,,,
OCCN(CCO)C(CO)(CO)CO [BIS-TRIS],1.67 fold,0.36 mg/mL,,,,
[Cl-].[K+] [Potassium chloride],1.89 fold,0.41 mg/mL,,,,
O=C([O-])[C@H](O)[C@@H](O)[C@H](O)[C@H](O)CO.[K+] [Potassium Gluconate],1.61 fold,0.35 mg/mL,,,,
O=C([O-])c1ccccc1O.[Na+] [Sodium Salicylate],1.84 fold,0.40 mg/mL,,,,
O=C(O)c1ccccc1 [Benzoic acid],15.09 fold,3.25 mg/mL,,,,successfully enhanced the dissolution of glucagon
CCCCCCCCCCCCOP(=O)([O-])OCC[N+](C)(C)C [Dodecylphosphocholine],4.37 fold,0.94 mg/mL,,,,successfully enhanced the dissolution of glucagon
O=S(=O)(O)CCCN1CCN(CCO)CC1 [EPPS],0.79 fold,0.17 mg/mL,,,,
NC(=O)CNCCS(=O)(=O)O [ACES],1.12 fold,0.24 mg/mL,,,,
NCCCC[C@H](N)C(=O)O [L-lysine],2.84 fold,0.61 mg/mL,,,,
N[C@@H](CS)C(=O)O [L-Cysteine],0.60 fold,0.13 mg/mL,,,,
CC(C)C[C@H](N)C(=O)O [L-leucine],1.32 fold,0.28 mg/mL,,,,
O=C(CO)[C@@H](O)[C@H](O)[C@H](O)CO [D-(−)-Fructose],1.09 fold,0.23 mg/mL,,,,
O=C(O)/C=C\C(=O)O [Maleic Acid],0.34 fold,0.07 mg/mL,,,,
NCCC(=O)O [Beta-Alanine],1.34 fold,0.29 mg/mL,,,,
N[C@@H](Cc1c[nH]c2ccccc12)C(=O)O [L-Tryptophan],1.54 fold,0.33 mg/mL,,,,

Compound,Fold change vs. PBS Avg.,Glucagon concentration Avg.,Fold change vs. PBS Avg. (listed as L-Histidine),Glucagon concentration Avg. (listed as L-Histidine),enhancement of solution glucagon concentration compared to unformulated glucagon (pH 7.4 PBS),enhancement of glucagon dissolution (statistical significance compared to no excipient)
O=S([O-])S(=O)(=O)[O-].[K+].[K+] [Potassium Metabisulfite],2.13 fold,0.46 mg/mL,,,,
O=S(=O)([O-])CCC[P+](c1ccccc1)(c1ccccc1)c1ccccc1 [3-(Triphenylphosphonio)propane-1-sulfonate],1.21 fold,0.26 mg/mL,,,,
OC[C@H]1O[C@@H]2O[C@H]3[C@H](O)[C@@H](O)[C@@H](O[C@H]4[C@H](O)[C@@H](O)[C@@H](O[C@H]5[C@H](O)[C@@H](O)[C@@H](O[C@H]6[C@H](O)[C@@H](O)[C@@H](O[C@H]7[C@H](O)[C@@H](O)[C@@H](O[C@H]1[C@H](O)[C@H]2O)O[C@@H]7CO)O[C@@H]6CO)O[C@@H]5CO)O[C@@H]4CO)O[C@@H]3CO [Alpha cyclodextrin],0.55 fold,0.12 mg/mL,,,,
O=S([O-])S(=O)[O-].[Na+].[Na+] [Sodium Dithionite],2.25 fold,0.49 mg/mL,,,,
O.O=C[C@H](O)[C@@H](O)[C@H](O)[C@H](O)CO [Dextrose Monohydrate],1.09 fold,0.24 mg/mL,,,,
"O=S(=O)(O)CCN1CCN(CCS(=O)(=O)O)CC1 [Piperazine-N,N′-bis(2-ethanesulfonic acid)]",3.70 fold,0.80 mg/mL,,,,successfully enhanced the dissolution of glucagon
O=S(=O)(O)CCNC(CO)(CO)CO [TES],1.75 fold,0.38 mg/mL,,,,
O=C1NS(=O)(=O)c2ccccc21.[Na] [Saccharin Sodium],1.21 fold,0.26 mg/mL,,,,
OC[C@@H](O)[C@@H](O)[C@H](O)[C@@H](O)CO [D-Sorbitol],1.16 fold,0.25 mg/mL,,,,
O=C(O)C(S)C(S)C(=O)O (centres unmarked) [Dimercaptosuccinic acid],2.38 fold,0.51 mg/mL,,,,
Betadex Sulfobutyl Ether Sodium,1.56 fold,0.34 mg/mL,,,,
Sodium deoxycholate,1.75 fold,0.38 mg/mL,,,,
OC[C@@H](O)[C@@H](O)[C@H](O)[C@H](O)CO [Mannitol],2.49 fold,0.54 mg/mL,,,,
O=C([O-])[C@H](O)[C@@H](O)[C@H](O)[C@H](O)CO.[Na+] [Sodium Gluconate],0.69 fold,0.15 mg/mL,,,,
NC(=O)CN(CC(=O)O)CC(=O)O [ADA],0.26 fold,0.06 mg/mL,,,,
Bovine serum albumin,2.86 fold,0.62 mg/mL,,,,

# The next lines start with results.
Fold change vs. PBS Avg.,Glucagon concentration Avg.,Fold change vs. PBS Avg. (listed as L-Histidine),Glucagon concentration Avg. (listed as L-Histidine),enhancement of solution glucagon concentration compared to unformulated glucagon (pH 7.4 PBS),Compound,enhancement of glucagon dissolution (statistical significance compared to no excipient)
1.52 fold,0.33 mg/mL,,,,O=C[C@H](O)[C@@H](O)[C@@H](O)CO [L-(+)-Arabinose],
1.28 fold,0.28 mg/mL,,,,O=S(=O)(O)CC(O)CN(CCO)CCO (centres unmarked) [DIPSO],
,1.32 mg/mL,,,,CNC[C@H](O)[C@@H](O)[C@H](O)[C@H](O)CO [Meglumine],
1.17 fold,0.25 mg/mL,,,,NC(=O)c1cccnc1 [Niacinamide],
1.15 fold,0.25 mg/mL,,,,O=S(=O)(O)CCN1CCN(CCO)CC1 [HEPES],
1.83 fold,0.39 mg/mL,,,,CC(C)(O)C(Cl)(Cl)Cl [Chlorobutanol Hemihydrate],
0.35 fold,0.08 mg/mL,,,,O=C(O)CC(O)C(=O)O (centres unmarked) [Malic Acid],
0.52 fold,0.11 mg/mL,,,,CCCCCCCCCCCC[N+](C)(C)CCCS(=O)(=O)O [Lauryl sulfobetaine],
3.11 fold,0.67 mg/mL,,,,O=C(O)CN(CCOCCOCCN(CC(=O)O)CC(=O)O)CC(=O)O [EGTA],
1.27 fold,0.27 mg/mL,,,,Methyl-B-Cyclodextrin,
1.32 fold,0.28 mg/mL,,,,OC[C@H]1O[C@@](CO)(O[C@H]2O[C@H](CO)[C@@H](O)[C@H](O)[C@H]2O)[C@@H](O)[C@@H]1O [Sucrose],
0.80 fold,0.17 mg/mL,,,,O=S(=O)(O)CCCN1CCOCC1 [MOPS],
2.57 fold,0.55 mg/mL,1.41 fold,0.30 mg/mL,,N[C@@H](Cc1c[nH]cn1)C(=O)O [L-histidine],
5.33 fold,1.15 mg/mL,,,up to 500%,CCCCCCCCCCCCCC[N+](C)(C)CCCS(=O)(=O)[O-] [Myristyl sulfobetaine],successfully enhanced the dissolution of glucagon
1.37 fold,0.29 mg/mL,,,,O=S(=O)(O)CC(O)CN1CCOCC1 (centres unmarked) [MOPSO],
1.95 fold,0.42 mg/mL,,,,O=C(O)CN(CCN(CC(=O)O)CC(=O)O)CCN(CC(=O)O)CC(=O)O [Pentetic Acid],
1.74 fold,0.37 mg/mL,,,,CC(O)COC[C@H]1O[C@@H]2O[C@H]3[C@H](O)[C@@H](O)[C@@H](O[C@H]4[C@H](O)[C@@H](O)[C@@H](O[C@H]5[C@H](O)[C@@H](O)[C@@H](O[C@H]6[C@H](O)[C@@H](O)[C@@H](O[C@H]7[C@H](O)[C@@H](O)[C@@H](O[C@H]8[C@H](O)[C@@H](O)[C@@H](O[C@H]1[C@H](O)[C@H]2O)O[C@@H]8COCC(C)O)O[C@@H]7COCC(C)O)O[C@@H]6COCC(C)O)O[C@@H]5COCC(C)O)O[C@@H]4COCC(C)O)O[C@@H]3COCC(C)O (some centres unmarked) [Hydroxypropyl Betadex],
1.40 fold,0.30 mg/mL,,,,OC[C@H]1O[C@@H]2O[C@H]3[C@H](O)[C@@H](O)[C@@H](O[C@H]4[C@H](O)[C@@H](O)[C@@H](O[C@H]5[C@H](O)[C@@H](O)[C@@H](O[C@H]6[C@H](O)[C@@H](O)[C@@H](O[C@H]7[C@H](O)[C@@H](O)[C@@H](O[C@H]8[C@H](O)[C@@H](O)[C@@H](O[C@H]1[C@H](O)[C@H]2O)O[C@@H]8CO)O[C@@H]7CO)O[C@@H]6CO)O[C@@H]5CO)O[C@@H]4CO)O[C@@H]3CO [B-Cyclodextrin],
1.66 fold,0.36 mg/mL,,,,N[C@@H](Cc1ccccc1)C(=O)O [L-Phenylalanine],
2.50 fold,0.54 mg/mL,,,,NC(CO)(CO)CO [Tris base],
1.15 fold,0.25 mg/mL,,,,CCCCCCCC[N+](C)(C)CCCS(=O)(=O)[O-] [Octyl sulfobetaine],
1.35 fold,0.29 mg/mL,,,,O=C(O)[C@H](O)[C@@H](O)[C@H](O[C@@H]1O[C@H](CO)[C@H](O)[C@H](O)[C@H]1O)[C@H](O)CO [Lactobionic Acid],
